Source: paper PMC8385015, “Tumour-on-chip microfluidic platform for assessment of drug pharmacokinetics and treatment response” (Communications Biology, 2021)
“And” between values parts separate entries of the source, which are not always exact repeats. Equal entries are not always repeated.

Columns and labels:
Assay type in all cases: cell-based
Ki67 = Ki67 immunofluorescence in SW620 spheroids, microfluidic chip
From the text: SN38 is a TOP1 inhibitor that that prevents relegation of the DNA strand by binding to TOP1–DNA complex and causes DNA double strand breaks (DSBs). Those DNA DSB lesions trigger activation of the ATM kinase for effective repair. Inhibition of ATM and consequent accumulation of unrepaired breaks leading to increased cell death provides the rationale for developing this combination for cancer treatment. […] Here, we tested whether different schedules lead to different activation of pharmacodynamic markers that are associated with DNA DSB damage, apoptosis and cell proliferation. The γ-H2AX associated foci accumulate in cells exposed to DBS inducing agents[18],[19]. These foci can be detected by immunostaining to determine their, size and morphology. However, spheroid imaging using a 20x objective on a CV7000 confocal microscope cannot accurately explore foci morphology, so we introduced customised ImageJ macros (described in “Methods” section, Supplementary Fig. 2 and Supplementary Method 1) to quantitate positive cells within a spheroid. The same method was applied to quantitate CC3-positive (apoptotic) cells, while normalisation by spheroid area was not required for Ki67, as this biomarker is present in all proliferating cells. […]
Total Hoechst area represents a parameter used for normalization within biomarker quantitation. […]

SW620 spheroids [1] = experiment: SW620 spheroid viability (CellTiterGlo 3D), microfluidic Ibidi chip
From the text: The tested schedules were designed to recapitulate mouse plasma PK profiles from similar schedules used in in vivo efficacy studies (Table 1) with a desire to reverse translate in vivo data and to evaluate the predictive ability of our microfluidic chip setup. […] We investigated changes in the spheroid volume, as well as viability using the CellTiterGlo assay. To evaluate whether our system could also be used to monitor treatment impact on pharmacodynamic biomarkers, we collected individual spheroids at the end of the treatment period and performed immunofluorescence analysis for γH2AX (DNA double strand break marker), cleaved caspase 3 (apoptosis) and Ki67 (proliferation marker), as detailed in “Methods” section and Supplementary Fig. 2. Each treatment condition was repeated at least three times and measurements for each condition were pooled from at least six spheroid replicates.
To mimic in vivo anti-cancer drugs PK profile at a constant flow rate, an 8-point concentration scale for specific durations was used. Each drug was delivered at a specific concentration, for a specific amount of time, consistent with the average concentration for the same durations in vivo, on a 24-h step schedule.
Each compound concentration/timing represented an average of the corresponding in vivo plasma values, measured by mass spectrometry (Supplementary Methods 4 and 5).
Spheroid viability assessment used a metabolic method (CellTiterGlo 3D, G9681, Promega) by measuring luminescence units expressed by individually recovered spheroids. Each chip bottom polymer film was cut using a scalpel and spheroids were individually collected and transferred in 25 µL media to the wells of a half area 96-well plate (1/2 AreaPlate-96, white, 6002290, Perkin-Elmer). CellTiterGlo vial was allowed to thaw (1 h, room temperature) and 25 µL reagent were added to each spheroid well. Plates were lidded with black sealing tape (Nunc, 731-0750, VWR) and placed on and orbital shaker for 40′. Luminescence levels were measured using a SpectraMax i3X (Molecular Devices, USA).

SW620 spheroids [2] = experiment: SW620 spheroid size/volume, microfluidic Ibidi chip mimicking mouse PK profile
Procedure: Spheroid images were taken for each experimental endpoint (day 7) using a Leica DMI4000B microscope (Leica Microsystems) with brightfield (BF), phase-contrast and fluorescence filters. Each flow line used two chips, one for viability assays and second for immunofluorescence. Both chips were imaged in BF prior spheroid recovery. Hardware embedded microscope scale has been translated in Fiji ImageJ to evaluate spheroid area/volume. The average size for SW620 spheroids was evaluated by measuring spheroid projection area in bright-field images, based on a macro script designed in an open-source imaging software (Fiji ImageJ) (Supplementary Method 1). Spheroid volume was evaluated following radius deduction from the measured area.

CCc1c2c(nc3ccc(O)cc13)-c1cc3c(c(=O)n1C2)COC(=O)[C@]3(O)CC [SN38]
Ki67 positive area (Ki67; Mono SN38, day 7, single spheroids): 3.88E+07 and 4.54E+07 and 3.33E+07 and 4.06E+07 and 4.69E+07
decrease in proliferation (Ki67) compared to control (Ki67; SN38 monotherapy, day 7): about 20%
spheroid viability (SW620 spheroids [1]; Microfluidic Ibidi chip, 6 days, CellTiterGlo, replicates (Fig 2d raw data), unit not given): 62.9 and 51.36 and 50.85 and 54.46 and 62.33 and 64.07 (2×)
spheroid viability (SW620 spheroids [1]; microfluidic chip, SN38 mono (1d), day 7, single spheroids): 6192690 RLU and 5479774 RLU and 8813513 RLU and 7953995 RLU and 8522809 RLU and 9260029 RLU and 5533818 RLU and 5710166 RLU
reduction in viability (SW620 spheroids [1]; microfluidic, dosed to mimic in vivo PK profile, 6 days): ~ 40%
spheroid size at day 6, fold increase in size over day 1 (SW620 spheroids [2]; Microfluidic Ibidi chip, PK-profile exposure, 6 days, single spheroids (Fig 2c raw data)): 2.9097 and 2.688 and 2.723 and 2.5658
spheroid volume as percentage of untreated control (SW620 spheroids [2]; microfluidic chip, SN38 mono (1d), day 7): 55%
